Data on 23 molecules can be found in EPA's ToxValDB 9.5.

Where “and” joins values, the source holds several entries; their conditions need not be identical. Equal entries are not always repeated.

In general, NOAEL refers to the highest tested level that showed no adverse finding. One may read the LD50 as the dose at which mortality reaches 50%. The low end stands for a more toxic substance, the high end for a less toxic substance. Usually LOAEL stands for the lowest tested level that showed an adverse finding.

For this series, the system named is Rattus norvegicus. Particulars: for LD50 / LC50: acute.
Where [1] appears, read: subchronic, duration: 90 days, oral, gavage, Sprague-Dawley.

Regarding `Cc1cc(N(C)C)ccc1[P+](=O)[O-].[Na+]`, under “reproduction developmental, duration: 14 days, injection, subcutaneous, F, Wistar”, the no-observed-adverse-effect level (NOAEL) came to 50 mg/kg-day.

In the case of `CCCCCCCCCCCCOCCOS(=O)(=O)[O-].[Na+]`, for the setting “oral”, the LD50 is 1600 mg/kg.

`CCN(CC)c1ccc2c(c1)Oc1cc(C)c(Nc3ccc(C)cc3C)cc1C21OC(=O)c2ccccc21` (configuration not stated) gave an LD50 (dermal, semiocclusive, Sprague-Dawley) of over 2000 mg/kg and an LD50 (oral, gavage, Sprague-Dawley) of over 10000 mg/kg.

The molecule `CCN(CC)c1ccc2c(c1)Oc1cc(C)c(Nc3ccccc3)cc1C21OC(=O)c2ccccc21` (configuration not stated) came in with an LD50 (oral, gavage, Sprague-Dawley) of over 2000 mg/kg.

The molecule `CC(O)CN(CCN(CC(C)O)CC(C)O)CC(C)O` (configuration not stated) [1,1',1'',1'''-(Ethylenedinitrilo)tetrakis(2-propanol)] gave an LD50 (oral, gavage) of 11200 mg/kg. The NOAEL (subchronic, duration: 3 months, oral, diet, Harlan) is ≥ 600 mg/kg-day and ≤ 900 mg/kg-day.

Regarding `Clc1cccc(Cl)c1` [1,3-Dichlorobenzene], the LD50 (oral, gavage, Sprague-Dawley) is 1200 mg/kg and 1100 mg/kg and 1000 mg/kg. In addition, the NOAEL reads like this: (reproduction developmental, duration: 10 days, oral, gavage, F, Sprague-Dawley) 200 mg/kg-day; (reproduction developmental, duration: 10 days, oral, gavage, Sprague-Dawley, generation: F1) 200 mg/kg-day; (reproduction developmental, duration: 90 days, oral, gavage, Sprague-Dawley, generation: F0) 147 mg/kg-day; under setting [1], 37 mg/kg-day. For the same molecule, the LOAEL under setting [1] worked out at 147 mg/kg-day.

`OCCN1CCNCC1` [1-Piperazineethanol] registered an LD50 (oral, gavage) of 2000 mg/kg. Moreover, the NOAEL runs as follows: (short-term, duration: 7 days, oral, diet, F, Wistar) 1610 mg/kg-day; (short-term, duration: 7 days, oral, diet, M, Wistar) 3720 mg/kg-day.

With `CC(C)(C)c1ccc(O)c(C(C)(C)C)c1` [2,4-Di-tert-butylphenol], the LD50 (oral, gavage, albino) is 1500 mg/kg and 1300 mg/kg and 2100 mg/kg.

Turning to `CCN(CC#N)c1cccc(C)c1` [2-(Ethyl(3-methylphenyl)amino)acetonitrile], the NOAEL turned out to be 150 mg/kg-day (developmental, duration: 38 days, oral, gavage, Sprague-Dawley); 25 mg/kg-day (reproduction developmental, duration: 38 days, oral, gavage, Sprague-Dawley, generation: F0); 150 mg/kg-day (reproduction developmental, duration: 38 days, oral, gavage, Sprague-Dawley, generation: F1).

Regarding `CC(CN)CCCN` (configuration not stated) [2-Methylpentanediamine], the LC50 (inhalation, CRL:CD BR) is 4.1 µg/mL and 2.9 µg/mL. This molecule also gave an LD50 (oral, gavage, Crl:CD(SD)) of 1690 mg/kg. Besides, the NOAEL is, setting by setting: (short-term, duration: 28 days, oral, diet, F, CRL:CD BR) 3000 ppm; (short-term, duration: 28 days, oral, diet, M, CRL:CD BR) 10000 ppm.

On to `CCN(CC)c1ccc(C(=O)c2ccccc2C(=O)O)c(O)c1` [2-[4-(Diethylamino)-2-hydroxybenzoyl]benzoic acid], for which the LD50 (oral, gavage, Sprague-Dawley) was over 5000 mg/kg.

Consider `CC(C)(c1ccccc1)c1ccc(O)cc1` [4-Cumylphenol], for which the LD50 is, setting by setting: (oral, Sprague-Dawley) 1770 mg/kg; (oral, gavage, Sprague-Dawley) 1770 mg/kg.

In the case of `COc1ccc(O)cc1` [4-Methoxyphenol], the NOAEL runs as follows: (developmental, dermal) 40 mg/kg-day; (reproduction developmental, dermal, F) 40 mg/kg-day.

For the molecule `CCCCCCC1C=CC(CCCCCCCC(=O)O)CC1C(=O)O` (configuration not stated) [5(6)-Carboxy-4-hexyl-2-cyclohexene-1-octanoic acid], the LD50 (oral, gavage, Sprague-Dawley) was 6180 mg/kg.

On to `O=c1c2ccccc2[nH]c2cc3c(=O)c4ccccc4[nH]c3cc12` [5,12-Dihydroquino[2,3-b]acridine-7,14-dione], for which, for the setting “inhalation, Crl:CD(SD)”, the LC50 was at least 3.1 µg/mL. This molecule came in with an LD50 (oral, gavage, albino) of at least 7500 mg/kg.

For the molecule `CCCCCCCC/C=C\CCCCCCCC#N` [(Z)-9-Octadecenenitrile], the LD50 (oral, gavage, Sprague-Dawley) is over 5000 mg/kg.

For the molecule `CCCCCCCC/C=C\CCCCCCCCN` [(Z)-9-Octadecenylamine], under “oral, gavage, Sprague-Dawley”, the LD50 was 1180 mg/kg and 1690 mg/kg.

Molecule `CCCC` [Butane] had an NOAEL (reproduction developmental, inhalation, Sprague-Dawley) of 21400 mg/m3.

For the molecule `O=C(Cl)C(Cl)Cl` [Dichloroacetyl chloride], the LD50 (oral) amounted to 2460 mg/kg. Moreover, the NOAEL (subchronic, duration: 30 days, inhalation, Sprague-Dawley) was 6.03 mg/m3.

Regarding `COC` [Dimethyl ether], the LC50 (inhalation, Sprague-Dawley) was 309000 mg/m3.

As for `CC(COCC(C)OC(=O)c1ccccc1)OC(=O)c1ccccc1` (configuration not stated) [Dipropylene glycol, dibenzoate], the LD50 was over 2000 mg/kg (dermal, Sprague-Dawley); 5070 mg/kg and 3300 mg/kg and 3910 mg/kg (oral, Sprague-Dawley). The NOAEL by setting is: (developmental, duration: 13 days, oral, gavage, Sprague-Dawley) 500 mg/kg-day and 250 mg/kg-day; (reproduction developmental, duration: 38 weeks, oral, diet, Sprague-Dawley, generation: F0) 10000 ppm; (reproduction developmental, duration: 38 weeks, oral, diet, Sprague-Dawley, generation: F1) 10000 ppm; (reproduction developmental, duration: 13 days, oral, gavage, F, Sprague-Dawley) 1000 mg/kg-day; (subchronic, duration: 13 weeks, oral, diet) 1000 mg/kg-day.

With `C1CCCNCC1` [Hexamethyleneimine], the LD50 (oral, gavage, Sprague-Dawley) was 9.6 mg/kg and ≥ 8 mg/kg and ≤ 11.4 mg/kg.

Take `CS(=O)(=O)O` [Methanesulfonic acid]: under “oral”, the LD50 is ≥ 200 mg/kg and ≤ 400 mg/kg.
